Patent US20130072720A1, “PHARMACEUTICAL COMPOSITION FOR TREATMENT OF OSTEOARTHRITIS” (NATIONAL DEFENSE MEDICAL CENTER, priority 2011, published 2013)

Legend:
[1] = tested on: inducible nitric oxide synthase (iNOS); experiment: TNF-α-induced iNOS expression in chondrocytes; type: cell-based, porcine; settings: chondrocytes stimulated by TNF-α (5 ng/ml), after 48 hours, HS—Cf in different concentrations
Text: (§1) The following embodiments show suppression effect of HS—Cf on those factors involved in signaling pathways of TNF-α-induced IRF-1 expression and prevention effect of HS—Cf on TNF-mediated collagen loss and proteoglycan loss. All porcine chondrocytes used are obtained from the hind leg joints of pigs.
(§2) NO (nitric oxide) is generated by TNF-α-induced iNOS so that iNOS expression is correlated with NO production. HS—Cf in different concentrations are delivered to chondrocytes stimulated by TNF-α (5 ng/ml).

NO (nitric oxide) = experiment: NO production in TNF-α-stimulated chondrocytes; type: cell-based, porcine; settings: chondrocytes stimulated by TNF-α (5 ng/ml), after 48 hours, HS—Cf in different concentrations
Text: as §1, §2

[2] = tested on: matrix metalloproteinase-1 (MMP-1); experiment: TNF-α-induced MMP-1 mRNA expression by Q-PCR; type: cell-based; settings: porcine chondrocytes, HS—Cf 2 hours, then TNF-α (5 ng/ml) four hours
Method: as §1
(§3) TNF-α-induced MMP-1 is one of the factors that damage and destroy cartilage. Mix HS—Cf in different concentrations with porcine chondrocytes and react for 2 hours. Then add TNF-α (5 ng/ml) to stimulate porcine chondrocytes for four hours. Next measure mRNA expression by real-time quantitative-polymerase chain reaction (Q-PCR).

[3] = tested on: matrix metalloproteinase-3 (MMP-3); experiment: TNF-α-induced MMP-3 mRNA expression by Q-PCR; type: cell-based; settings: porcine chondrocytes, HS—Cf 2 hours, then TNF-α (5 ng/ml) four hours
Method: as §1
as §3, with “MMP-3” for “MMP-1”

[4] = tested on: matrix metalloproteinase-13 (MMP-13); experiment: TNF-α-induced MMP-13 mRNA expression by Q-PCR; type: cell-based; settings: porcine chondrocytes, HS—Cf 2 hours, then TNF-α (5 ng/ml) four hours
Method: as §1
Mix HS—Cf in different concentrations with porcine chondrocytes and react for 2 hours. Then add TNF-α (5 ng/ml) to stimulate cells for four hours. Next observe mRNA expression by real-time quantitative-polymerase chain reaction (Q-PCR).

[5] = tested on: ADAMTS-4, also called Aggrecanase-1; experiment: TNF-α-induced ADAMTS-4 mRNA expression by Q-PCR; type: cell-based; settings: porcine chondrocytes, HS—Cf 2 hours, then TNF-α (5 ng/ml) four hours
Method: as §1
TNF-α induced ADAMTS-4 is one of the factors that damage and destroy cartilage. Mix HS—Cf in different concentrations with porcine chondrocytes and react for 2 hours. Then add TNF-α (5 ng/ml) to stimulate cells for four hours. Next measure mRNA expression by Q-PCR.

[6] = tested on: ADAMTS-5, also called Aggrecanase-2; experiment: TNF-α-induced ADAMTS-5 mRNA expression by Q-PCR; type: cell-based; settings: porcine chondrocytes, HS—Cf 2 hours, then TNF-α (5 ng/ml) four hours
Method: as §1
TNF-α induced ADAMTS-5 is one of the factors that damage and destroy cartilage. Mix HS—Cf in different concentrations with porcine chondrocytes and react for 2 hours. Then add TNF-α (5 ng/ml) to stimulate cells for four hours. Next observe mRNA expression by Q-PCR.

collagen II = experiment: Loss prevention of collagen II under TNF-α stimulation, Western blot; type: cell-based; settings: porcine chondrocytes, HS—Cf 24 hours, then TNF-α (5 ng/ml) 48 hours
Method: as §1
As shown in the figure, after mixing porcine chondrocytes with TNF-α (5 ng/ml), the amount of collagen II at different times is determined by Western Blot. It is confirmed that collagen II is degraded and lost along with the time under TNF-α stimulation. […] Then add TNF-α (5 ng/ml) to stimulate porcine chondrocytes for 48 hours. Next use western blot to measure the amount of protein.

proteoglycan (aggrecan) = experiment: Loss prevention of proteoglycan under TNF-α stimulation, Safranin-O staining; type: cell-based; settings: porcine chondrocytes, 5/or 10 μM HS—Cf 24 hours, then TNF-α (5 ng/ml) 72 hours
Method: as §1
Besides collagen II, loss of proteoglycan (aggrecan) is also affected by HS—Cf. […] Then add TNF-α (5 ng/ml) to stimulate porcine chondrocytes for 72 hours. Next use Safranin-O staining to observe the amount of proteoglycan in cartilaginous tissue.

porcine chondrocytes [7] = experiment: MTT cell viability assay; type: cell-based; settings: any of the concentrations
Text: (§4) Cytotoxicity of HS—Cf also has been checked. HS—Cf is used as a pharmaceutical composition so that cytotoxicity of HS—Cf has to be carefully considered for determining whether HS—Cf can be used for treatment of osteoarthritis. […] Thus HS—Cf is used in treatment of organisms.

porcine chondrocytes [8] = experiment: lactate dehydrogenase (LDH) assay; type: cell-based; settings: any of the concentrations
Text: as §4

O=C(Nc1cccc(C(F)(F)F)c1)c1ccccc1O [HS—Cf, 2-hydroxy-N-[3-(trifluoromethyl)phenyl]benzamide] was tested, and the iNOS expression [1] was “significantly decreases iNOS expression at higher concentration”, the NO production (NO (nitric oxide)) was “NO production is also reduced along with the increasing concentration” and the “MMP-1 mRNA expression” value [2] was “MMP-1 expression is decreased along with the increasing concentration”. For the same compound, the “MMP-3 mRNA expression” value [3] was “decreases MMP-3 expression at higher concentration”, the “MMP-13 mRNA expression” value [4] was “MMP-13 expression is decreased along with the increasing concentration” and the “ADAMTS-4 mRNA expression” value [5] was “ADAMTS-4 expression is decreased along with the increasing concentration”. The “ADAMTS-5 mRNA expression” value [6] was “ADAMTS-5 expression is decreased along with the increasing concentration”, the “degradation and loss of collagen II” value (collagen II) was “degradation and loss of collagen II is under control” and the “degradation and loss of proteoglycan” value (proteoglycan (aggrecan)) was “degradation and loss of proteoglycan is under control”. For the same compound, the “cytotoxicity (MTT cell viability assay)” value (porcine chondrocytes [7]) was “no obvious cytotoxic effect” and the “cytotoxicity (LDH assay)” value (porcine chondrocytes [8]) was “no obvious cytotoxic effect”.
